Patent publication US11180504B2 (ORCHID PHARMA LTD., priority 2016, dated 2021)
≈ marks a conversion by molar mass, not a printed value. Where two headings read alike, the source gives them in different places.

How the values were obtained:
[1] = tested on: carbapenemase producing K. pneumoniae; experiment: MIC by broth micro-dilution (CLSI), carbapenemase producing K. pneumoniae; assay type: cell-based, Klebsiella pneumoniae; conditions: Klebsiella pneumoniae
[2] = tested on: carbapenem sensitive Escherichia coli; experiment: MIC by broth micro-dilution (CLSI), carbapenem sensitive E. coli; assay type: cell-based; conditions: Escherichia coli
[3] = tested on: extended spectrum β lactamase (ESBL) SHV18 producing Klebsiella pneumoniae; experiment: MIC by broth micro-dilution (CLSI), ESBL SHV18 producing K. pneumoniae; assay type: cell-based; conditions: Klebsiella pneumoniae, ATCC700603, 22 h
[4] = tested on: carbapenem sensitive Pseudomonas aeruginosa; experiment: MIC by broth micro-dilution (CLSI), carbapenem sensitive P. aeruginosa; assay type: cell-based; conditions: Pseudomonas aeruginosa
[5] = tested on: methicillin-sensitive Staphylococcus aureus; experiment: MIC by broth micro-dilution (CLSI), methicillin-sensitive S. aureus; assay type: cell-based; conditions: Staphylococcus aureus, ATCC 29213 / MSSA
[6] = ATCCBAA1705, KPC-2 K. pneumoniae ATCC BAA-1705, read-out: MIC
[7] = ATCC25922, ESBL −ve E. coli ATCC25922, read-out: MIC
[8] = ESBL +ve (SHV-18) K. pneumoniae ATCC700603, read-out: MIC
[9] = ATCC27853, Meropenem susceptible P. aeruginosa ATCC27853, read-out: MIC
[10] = MSSA S. aureus ATCC29213, read-out: MIC

Row | SMILES | MIC [1, 6] [µg/mL] | MIC [2, 7] [µg/mL] | MIC [3, 8] [µg/mL] | MIC [4, 9] [µg/mL] | MIC [5, 10] [µg/mL] | MIC ([1]; ATCCBAA1705) [µg/mL] | MIC ([2]; ATCC25922) [µg/mL] | MIC [3] [µg/mL] | MIC ([4]; ATCC27853) [µg/mL] | MIC [5] [µg/mL]
1 | C[C@@H](NS(=O)(=O)CCN)[C@H]1C(=O)N2C(C(=O)O)=C(S[C@@H]3CN[C@H](C(=O)N(C)C)C3)[C@H](C)[C@H]12 [Example 136] | 16 (≈ 32.7 µM) | 4 (≈ 8.17 µM) | 16 (≈ 32.7 µM) | 32 (≈ 65.4 µM) | > 128 |  |  |  |  | 
2 | CNC(=O)[C@@H]1C[C@H](SC2=C(C(=O)O)N3C(=O)[C@H]([C@@H](C)NC(=O)C(F)F)[C@H]3[C@H]2C)CN1 [Example 101] | 4 (≈ 8.96 µM) | 0.5 (≈ 1.12 µM) | 1 (≈ 2.24 µM) | 64 (≈ 143 µM) | 2 (≈ 4.48 µM) |  |  |  |  | 
3 | C[C@@H](NC(=O)C(F)F)[C@H]1C(=O)N2C(C(=O)O)=C(S[C@@H]3CN[C@H](C(=O)N4CC[C@H](N)C4)C3)[C@H](C)[C@H]12 [Example 103] | 8 (≈ 16 µM) | 0.5 (≈ 0.997 µM) | 4 (≈ 7.98 µM) | 8 (≈ 16 µM) | 0.5 (≈ 0.997 µM) |  |  |  |  | 
4 | COP(=O)(CC(=O)N[C@H](C)[C@H]1C(=O)N2C(C(=O)O)=C(S[C@@H]3CN[C@H](C(=O)N(C)C)C3)[C@H](C)[C@H]12)OC [Example 91] |  |  |  |  |  | 32 (≈ 60.1 µM) | 4 (≈ 7.51 µM) | 32 (≈ 60.1 µM) | > 128 | 16 (≈ 30 µM)
5 | C[C@@H](NC(=O)[C@@H]1CCCN1)[C@H]1C(=O)N2C(C(=O)O)=C(S[C@@H]3CN[C@H](C(=O)N(C)C)C3)[C@H](C)[C@H]12 [Example 228] | 8 (≈ 16.7 µM) | 1 (≈ 2.09 µM) | 4 (≈ 8.34 µM) | 64 (≈ 133 µM) | 64 (≈ 133 µM) |  |  |  |  | 
6 | CNCC(=O)N[C@H](C)[C@H]1C(=O)N2C(C(=O)O)=C(S[C@@H]3CN[C@H](CNS(N)(=O)=O)C3)[C@H](C)[C@H]12 [Example 169] | 2 (≈ 4.08 µM) | 1 (≈ 2.04 µM) | 16 (≈ 32.6 µM) | 4 (≈ 8.15 µM) | 8 (≈ 16.3 µM) |  |  |  |  | 
7 | C[C@@H](NC(=O)C(F)F)[C@H]1C(=O)N2C(C(=O)O)=C(S[C@@H]3CN[C@H](CNS(C)(=O)=O)C3)[C@H](C)[C@H]12 [Example 85] | 2 (≈ 4.03 µM) | 0.5 (≈ 1.01 µM) | 2 (≈ 4.03 µM) | 64 (≈ 129 µM) | 1 (≈ 2.01 µM) |  |  |  |  | 
8 | C[C@H]1C(S[C@@H]2CN[C@H](C(=O)N(CCO)CCO)C2)=C(C(=O)O)N2C(=O)[C@H]([C@@H](C)NC(=O)C(F)F)C12 (stereo partly drawn) [Example 140] | 2 (≈ 3.84 µM) | 0.5 (≈ 0.961 µM) | 1 (≈ 1.92 µM) | 32 (≈ 61.5 µM) | 2 (≈ 3.84 µM) |  |  |  |  | 
9 | CNCC(=O)N[C@H](C)[C@H]1C(=O)N2C(C(=O)O)=C(S[C@@H]3CN[C@H](C(=O)N4C[C@@H](N)C[C@H]4CN)C3)[C@H](C)[C@H]12 [Example 191] | 8 (≈ 15.3 µM) | 8 (≈ 15.3 µM) | 32 (≈ 61.1 µM) | 32 (≈ 61.1 µM) | 64 (≈ 122 µM) |  |  |  |  | 
10 | C[C@@H](NC(=O)CCN)[C@H]1C(=O)N2C(C(=O)O)=C(S[C@@H]3CN[C@H](C(=O)N(C)C)C3)[C@H](C)[C@H]12 [Example 165] | 2 (≈ 4.41 µM) | 2 (≈ 4.41 µM) | 4 (≈ 8.82 µM) | 32 (≈ 70.6 µM) | 64 (≈ 141 µM) |  |  |  |  | 
11 | C[C@@H](NC(=O)C1(C(F)(F)F)CC1)[C@H]1C(=O)N2C(C(=O)O)=C(S[C@@H]3CN[C@H](C(=O)N(C)C)C3)[C@H](C)[C@H]12 [Example 17] | 32 (≈ 61.7 µM) | 16 (≈ 30.9 µM) | > 128 | 128 (≈ 247 µM) | 4 (≈ 7.71 µM) |  |  |  |  | 
12 | C[C@@H](NC(=O)C(F)F)[C@H]1C(=O)N2C(C(=O)O)=C(S[C@@H]3CN[C@H](CNS(N)(=O)=O)C3)[C@H](C)[C@H]12 [Example 38] | 2 to 4 (≈ 4.02 to 8.04 µM) | 1 (≈ 2.01 µM) | 1 (≈ 2.01 µM) | 32 to 64 (≈ 64.3 to 129 µM) | 0.25 (≈ 0.502 µM) |  |  |  |  | 
13 | C[C@@H](NC(=O)C(F)F)[C@H]1C(=O)N2C(C(=O)O)=C(S[C@@H]3CN[C@H](C(=O)N4CC[C@@H](CN)C4)C3)[C@H](C)[C@H]12 [Example 219] | 4 (≈ 7.76 µM) | 1 (≈ 1.94 µM) | 4 (≈ 7.76 µM) | 4 (≈ 7.76 µM) | 2 (≈ 3.88 µM) |  |  |  |  | 
14 | CNCC(=O)N1CCN(C(=O)[C@@H]2C[C@H](SC3=C(C(=O)O)N4C(=O)[C@H]([C@@H](C)NC(=O)C(F)F)[C@H]4[C@H]3C)CN2)CC1 [Example 158] | 4 (≈ 6.99 µM) | 1 (≈ 1.75 µM) | 4 (≈ 6.99 µM) | 8 (≈ 14 µM) | 2 (≈ 3.49 µM) |  |  |  |  | 
15 | C[C@@H](NC(=O)C(F)F)[C@H]1C(=O)N2C(C(=O)O)=C(S[C@@H]3CN[C@H](C(=O)N4C[C@@H](N)C[C@H]4CO)C3)[C@H](C)[C@H]12 [Example 186] | 4 (≈ 7.52 µM) | 0.5 (≈ 0.941 µM) | 4 (≈ 7.52 µM) | 8 (≈ 15 µM) | 4 (≈ 7.52 µM) |  |  |  |  | 
